Data as given in ChEMBL document CHEMBL5120920, “A Mitochondria-Targeted Phenylbutyric Acid Prodrug Confers Drastically Improved Anticancer Activities” (J Med Chem, 2022).
Activity calls are given as the source filed them. The rule behind the calls is not given here.

What was measured:
A-375 [1] = experiment: Antitumor activity against human A-375 cells implanted in BALB/c mouse assessed as shrinkage of tumor tissue at 70 mg/kg, ip measured once every two days for 14 days; type: functional, organism-based; settings: time 14.0 day
[2] = Toxicity in BALB/c mouse assessed as change in body weight at 70 mg/kg, iv measured once every two days for 7 days; type: organism-based; settings: in vivo, 168 h, time 7 day
A-375 [3] = experiment: Antitumor activity against human A-375 cells implanted in BALB/c mouse assessed as reduction in tumor weight at 70 mg/kg, ip measured once every two days for 14 days; type: functional, organism-based; settings: time 14.0 day
A-375 [4] = experiment: Antitumor activity against human A-375 cells implanted in BALB/c mouse assessed as tumor growth inhibition at 70 mg/kg, ip measured once every two days for 14 days; type: functional, organism-based; settings: time 14.0 day

CN(C)/N=N/c1[nH]cnc1C(N)=O [DACARBAZINE]
Activity (A-375 [1]): Active
Activity [2]: Toxic
Activity (A-375 [3]): Active
Activity (A-375 [4]): Active
